# According to patent US9301961B2, “Autoimmune and inflammatory disorder therapy” (Katholieke Universiteit Leuven, K.U. Leuven R&D, priority 2011, dated 2016):
# Read-outs that look alike come from different tables or passages of the source.
# Legend:
# [1] = target: T1, LOK (Homo sapiens, UniProt O94804); test: Kinase-tagged phage competition binding assay (qPCR), 382-kinase library
# T1 construct: made in house; host or cells: E. coli BL21-derived host (T7 phage) or HEK-293
# [2] = target: T2, YSK4 (Homo sapiens, UniProt Q56UN5); test: as above
# T2 construct: made in house; host or cells: E. coli BL21-derived host (T7 phage) or HEK-293
# T2 sequence (Q56UN5 1-1328): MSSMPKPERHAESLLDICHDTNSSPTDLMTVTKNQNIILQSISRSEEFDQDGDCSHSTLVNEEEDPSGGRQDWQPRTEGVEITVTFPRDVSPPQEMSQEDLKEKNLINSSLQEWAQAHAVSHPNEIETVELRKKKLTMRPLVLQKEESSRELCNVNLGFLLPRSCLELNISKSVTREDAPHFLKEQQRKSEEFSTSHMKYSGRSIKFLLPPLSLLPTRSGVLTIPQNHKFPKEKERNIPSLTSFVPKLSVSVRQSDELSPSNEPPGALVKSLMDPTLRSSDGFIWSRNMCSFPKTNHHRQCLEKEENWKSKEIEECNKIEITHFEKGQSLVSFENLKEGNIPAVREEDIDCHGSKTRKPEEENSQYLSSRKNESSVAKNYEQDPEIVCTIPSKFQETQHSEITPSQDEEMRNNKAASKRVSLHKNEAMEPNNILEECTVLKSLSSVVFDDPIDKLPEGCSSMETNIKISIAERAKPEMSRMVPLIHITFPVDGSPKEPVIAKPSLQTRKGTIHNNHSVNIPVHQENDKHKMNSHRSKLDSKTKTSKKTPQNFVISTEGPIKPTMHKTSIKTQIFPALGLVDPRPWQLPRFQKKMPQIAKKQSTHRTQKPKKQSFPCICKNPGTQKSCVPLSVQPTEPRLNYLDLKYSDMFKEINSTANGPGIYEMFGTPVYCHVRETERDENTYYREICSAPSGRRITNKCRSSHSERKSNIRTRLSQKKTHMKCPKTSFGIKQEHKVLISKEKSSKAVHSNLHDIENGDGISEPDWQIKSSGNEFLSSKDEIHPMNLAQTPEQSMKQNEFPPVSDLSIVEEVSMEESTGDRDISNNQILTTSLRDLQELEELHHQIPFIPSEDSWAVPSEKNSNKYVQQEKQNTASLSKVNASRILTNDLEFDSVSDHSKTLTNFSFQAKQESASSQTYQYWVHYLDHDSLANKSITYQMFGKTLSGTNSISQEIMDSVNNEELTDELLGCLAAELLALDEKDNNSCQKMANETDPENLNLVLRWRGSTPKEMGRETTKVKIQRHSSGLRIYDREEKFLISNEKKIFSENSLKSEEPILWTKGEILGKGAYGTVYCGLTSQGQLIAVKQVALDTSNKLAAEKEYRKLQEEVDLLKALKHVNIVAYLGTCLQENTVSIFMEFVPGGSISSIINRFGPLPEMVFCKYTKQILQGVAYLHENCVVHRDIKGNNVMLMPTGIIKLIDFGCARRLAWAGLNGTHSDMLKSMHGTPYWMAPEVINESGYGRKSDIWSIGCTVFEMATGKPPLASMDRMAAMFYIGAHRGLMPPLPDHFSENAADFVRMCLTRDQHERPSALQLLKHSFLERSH
# [3] = target: T3, ADCK3 (Homo sapiens, UniProt Q8NI60); test: as above
# T3 construct: made in house; host or cells: E. coli BL21-derived host (T7 phage) or HEK-293
# T3 sequence (Q8NI60 163-647): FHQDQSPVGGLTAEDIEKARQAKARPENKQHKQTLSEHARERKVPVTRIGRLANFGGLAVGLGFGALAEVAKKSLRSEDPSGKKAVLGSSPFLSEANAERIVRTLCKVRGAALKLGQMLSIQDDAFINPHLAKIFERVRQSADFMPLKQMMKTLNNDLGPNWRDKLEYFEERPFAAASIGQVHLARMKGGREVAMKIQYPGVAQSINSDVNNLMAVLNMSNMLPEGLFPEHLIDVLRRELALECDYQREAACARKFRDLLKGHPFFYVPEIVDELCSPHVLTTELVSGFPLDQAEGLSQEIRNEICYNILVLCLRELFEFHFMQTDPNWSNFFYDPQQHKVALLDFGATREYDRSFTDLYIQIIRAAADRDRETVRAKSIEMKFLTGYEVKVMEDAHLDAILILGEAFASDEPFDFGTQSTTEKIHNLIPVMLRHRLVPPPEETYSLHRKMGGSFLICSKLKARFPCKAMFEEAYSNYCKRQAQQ
# [4] = target: T4, PIK3CB (Homo sapiens, UniProt P42338); test: as above
# T4 construct: made in house; host or cells: E. coli BL21-derived host (T7 phage) or HEK-293
# T4 sequence (P42338 whole entry): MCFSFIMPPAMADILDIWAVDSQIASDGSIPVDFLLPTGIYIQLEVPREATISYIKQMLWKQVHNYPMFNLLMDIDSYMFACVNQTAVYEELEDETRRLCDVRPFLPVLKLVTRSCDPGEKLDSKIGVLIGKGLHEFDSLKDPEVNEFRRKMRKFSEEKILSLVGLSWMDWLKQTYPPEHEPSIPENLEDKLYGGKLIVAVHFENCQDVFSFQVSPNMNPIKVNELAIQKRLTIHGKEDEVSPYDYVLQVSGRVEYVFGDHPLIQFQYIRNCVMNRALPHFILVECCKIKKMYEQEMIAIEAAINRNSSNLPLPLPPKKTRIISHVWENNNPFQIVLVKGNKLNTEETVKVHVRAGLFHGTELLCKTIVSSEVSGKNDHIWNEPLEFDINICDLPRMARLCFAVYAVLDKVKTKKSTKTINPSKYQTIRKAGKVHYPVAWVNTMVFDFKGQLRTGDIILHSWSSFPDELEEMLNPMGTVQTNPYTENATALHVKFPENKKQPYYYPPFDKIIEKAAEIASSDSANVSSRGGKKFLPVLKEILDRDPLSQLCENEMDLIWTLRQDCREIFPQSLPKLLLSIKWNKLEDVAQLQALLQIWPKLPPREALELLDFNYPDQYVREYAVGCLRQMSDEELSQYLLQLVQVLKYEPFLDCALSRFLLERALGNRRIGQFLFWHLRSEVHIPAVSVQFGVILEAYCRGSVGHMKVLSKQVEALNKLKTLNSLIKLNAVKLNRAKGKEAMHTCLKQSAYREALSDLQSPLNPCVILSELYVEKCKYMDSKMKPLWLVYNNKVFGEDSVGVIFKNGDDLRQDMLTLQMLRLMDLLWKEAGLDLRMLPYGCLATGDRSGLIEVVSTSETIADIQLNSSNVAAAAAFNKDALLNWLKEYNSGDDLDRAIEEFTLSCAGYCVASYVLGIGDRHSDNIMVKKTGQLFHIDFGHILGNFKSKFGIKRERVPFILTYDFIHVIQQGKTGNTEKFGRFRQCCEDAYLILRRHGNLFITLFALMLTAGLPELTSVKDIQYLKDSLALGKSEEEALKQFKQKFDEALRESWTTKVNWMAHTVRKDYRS
# [5] = target: T5, PAK1 (Homo sapiens, UniProt Q13153); test: Commercial kinase activity assay (Invitrogen, fluorescence); assay type: biochemical; conditions: 10 μM test compound
# T5 construct: made in house; host or cells: E. coli BL21-derived host (T7 phage) or HEK-293
# T5 sequence (Q13153 whole entry): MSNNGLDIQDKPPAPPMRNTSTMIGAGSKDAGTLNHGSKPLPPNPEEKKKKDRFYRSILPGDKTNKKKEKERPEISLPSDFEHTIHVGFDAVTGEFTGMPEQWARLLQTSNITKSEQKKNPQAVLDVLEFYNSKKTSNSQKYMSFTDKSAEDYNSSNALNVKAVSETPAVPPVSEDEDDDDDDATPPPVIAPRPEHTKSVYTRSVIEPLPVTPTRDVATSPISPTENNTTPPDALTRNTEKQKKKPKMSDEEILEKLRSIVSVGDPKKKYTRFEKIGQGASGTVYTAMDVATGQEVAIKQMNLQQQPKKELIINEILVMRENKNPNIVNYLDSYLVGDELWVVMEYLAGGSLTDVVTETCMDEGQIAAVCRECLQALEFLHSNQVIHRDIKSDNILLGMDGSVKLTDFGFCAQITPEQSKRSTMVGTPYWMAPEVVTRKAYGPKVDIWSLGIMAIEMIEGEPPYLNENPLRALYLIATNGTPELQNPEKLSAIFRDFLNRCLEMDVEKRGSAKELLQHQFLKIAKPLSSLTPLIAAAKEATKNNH
# [6] = tested on: murine splenocytes stimulated with α-CD3 antibody; test: Cytokine secretion after α-CD3 stimulation; assay type: cell-based, Balb/C mice; conditions: Mus musculus, Splenocyte, 24 h
# Protocol: The ability of test compounds to inhibit cytokine release by murine splenocytes after stimulation with α-CD3 antibody was also investigated.
# 2×10^6 splenocytes from Balb/C female mice, 8-10 weeks old in 220 μl of complete medium were stimulated with 0.1 μg of hamster anti mouse CD3ε antibody in presence of various concentrations of test compounds. After 24 h of incubation at 37° C., 5% CO2, supernatant were collected and cytokine titers were determined by flow cytometry according manufacturer protocols (MCB United States, Arlington, Mass., USA).
# The results are shown in FIG. 1 compared to a DMSO negative control (▾). […].
# [7] = 10 μM compound, read-out: % Inhibition of substrate binding
# [8] = stated for the 8 kinases of Table 1
# T1 sequence (O94804 whole entry): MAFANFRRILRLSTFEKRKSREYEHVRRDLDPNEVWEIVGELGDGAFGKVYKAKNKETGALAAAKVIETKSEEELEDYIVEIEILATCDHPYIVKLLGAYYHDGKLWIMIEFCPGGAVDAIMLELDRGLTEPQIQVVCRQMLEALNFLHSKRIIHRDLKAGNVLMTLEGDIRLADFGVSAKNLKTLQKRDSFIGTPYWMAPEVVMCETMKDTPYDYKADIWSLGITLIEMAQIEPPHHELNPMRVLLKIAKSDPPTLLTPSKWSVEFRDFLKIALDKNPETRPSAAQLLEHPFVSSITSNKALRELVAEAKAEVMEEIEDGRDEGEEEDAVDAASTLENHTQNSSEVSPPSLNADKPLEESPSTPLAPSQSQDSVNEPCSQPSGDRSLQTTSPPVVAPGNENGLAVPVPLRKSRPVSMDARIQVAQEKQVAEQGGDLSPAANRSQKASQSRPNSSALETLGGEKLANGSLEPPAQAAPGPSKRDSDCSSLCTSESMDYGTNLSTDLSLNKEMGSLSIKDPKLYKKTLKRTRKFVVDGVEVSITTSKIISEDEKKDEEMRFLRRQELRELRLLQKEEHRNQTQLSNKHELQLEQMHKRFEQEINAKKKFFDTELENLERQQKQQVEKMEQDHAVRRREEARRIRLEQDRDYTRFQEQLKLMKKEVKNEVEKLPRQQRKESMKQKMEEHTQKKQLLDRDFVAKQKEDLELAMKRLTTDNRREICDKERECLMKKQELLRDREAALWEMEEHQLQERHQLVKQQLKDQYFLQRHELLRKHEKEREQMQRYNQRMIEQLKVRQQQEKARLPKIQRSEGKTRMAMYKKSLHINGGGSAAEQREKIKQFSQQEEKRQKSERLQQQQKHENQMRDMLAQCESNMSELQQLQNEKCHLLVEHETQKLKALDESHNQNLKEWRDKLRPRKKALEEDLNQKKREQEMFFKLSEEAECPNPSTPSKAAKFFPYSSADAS
smiles,measurement,setting,value
"Nc1nc(N2CCN(C(=O)COc3ccc(Cl)cc3)CC2)c2nc(-c3cccnc3)sc2n1 [formula (1), 5-amino-7-[4-(4-chlorophenoxyacetyl)piperazin-1-yl]-2-(pyridin-3-yl)thiazolo[5,4-d]pyrimidine]",inhibition at 10 µM,[1]; [7],100%
same,IC50,[1]; [8],< 10 µM
same,inhibition at 10 µM,[2]; [7],79%
same,IC50,[2]; [8],< 10 µM
same,inhibition at 10 µM,[3]; [7],68%
same,IC50,[3]; [8],< 10 µM
same,inhibition at 10 µM,[4]; [7],56%
same,IC50,[4]; [8],< 10 µM
same,Kinase activity,[5],115 percentage of control
same,IC50,[6]; read-out: IC50 for inhibition of IFNγ release,0.204 µM
same,IC50,[6]; read-out: IC50 for inhibition of IL2 release,0.076 µM
